Test results from US11213499B1, “Use of 3,3′-diselenodipropionic acid (DSePA) as an anticancer agent” (Secretary, Department of Atomic Energy, priority 2020, dated 2022).

Tested on: human K562 xenograft
Test: Anti-tumor effect in human K562 xenograft model
Assay type: in vivo
Details: for mortality: study period of 30 days
Experimental: These xenografts representative of NSCLC and CML respectively are considered to be highly aggressive and resistant to chemotherapy treatment. Therefore, any new chemotherapy agent against these cancers is very much sought. For the experiment, a total of 12 mice bearing A549 or K562 tumors of volume in the range of ˜50 mm^3 were divided into two groups (I & II), each group comprising of six mice. […] The group II was administered DSePA daily dissolved in sterile saline through oral route at a dosage of 1 mg/Kg body weight. The tumor volume and body weight of mice from each group were monitored daily for a total period of 30 days from the day of start. The animals were also checked for mortality if any throughout the study period. The experiment in A549 tumor was repeated three times (n=18 for each group) and the experiment in K562 tumor was repeated two times (n=12 for each group). […] This is the first study to show the anticancer activity of DSePA per se using xenograft model of human lung cancer (A549) and human leukemia (K562) cells in mice. Discovery of the application of the anticancer activity of DSePA is a novel invention in context of its probable usage in treatment for lung and leukemia cancer. More specifically the invention proposes a treatment regime and route of administering DSePA to inhibit the growth of human NSCLC (A549) and CML (K562).
For the optimization of the oral dosage of DSePA, a total of 24 mice bearing A549 or K562 xenograft of volume in the range of ˜50 mm^3 were divided into four groups (I-IV), each group comprising of six mice. […] The groups II, III and IV were administered DSePA dissolved in sterile saline through oral route at the dosage of 1, 2.5 and 5 mg/kg body weight respectively. The administration of DSePA was performed daily for 4 weeks. The tumor volume and body weight of mice from each group were monitored daily for a total period of 30 days from the day of start. The animals were also checked for mortality if any throughout the study period.
Animal maintenance—All animal studies were approved by the Institutional Animal Ethics Committee. Animals were housed under standard conditions (20±2° C., 65-70% humidity, 12 h/12 h day/night cycle, balanced laboratory diet and tap water ad libitum.
Xenograft tumor model-A549 and K562 tumor models were developed by Anticancer Drug Screening Facility of Advanced Centre for Treatment, Research and Education in Cancer (ACTREC), India. Briefly, Male/female NOD-SCID aged 6-7 weeks were housed in the laboratory animal facility of ACTREC. Donor mice carrying K562 or A549 xenografts were developed by injecting 2×10^6 cells in 100 μl of DMEM/RPMI, subcutaneously in their right flank. When tumors attained the size of approximately 2000 mm^3, the animals were sacrificed. Tumors were obtained and further cut into 2-3 mm fragments and implanted subcutaneously in the right flank of 6-7 weeks old recipient SCID mice. Tumors were allowed to grow to a size of approximately 50 mm^3 following which animals were divided into groups of six animals each for evaluation. A fresh DSePA solution was prepared by dissolution in sterile saline before each administration by intraperitoneal/oral route. The tumor efficacy of DSePA was determined by monitoring parameters like tumor volume and T/C. Tumors were assumed spherical and volume was calculated using following equations (1 & 2): […]
Where d1 (mm) and d2 (mm) are diameters measured in two perpendicular planes. T/C is defined as the ratio of the mean tumor volume of DSePA treated groups with the mean tumor volume of control group on the day of observation.

[1] = 1 mg/kg body weight daily oral, day 1
[2] = 1 mg/kg body weight daily oral, day 5
[3] = 1 mg/kg body weight daily oral, day 9
[4] = 1 mg/kg body weight daily oral, day 12
[5] = 1 mg/kg body weight daily oral, day 15
[6] = 1 mg/kg body weight daily oral, day 18
[7] = 1 mg/kg body weight daily oral, day 21
[8] = 1 mg/kg body weight daily oral, day 24
[9] = 1 mg/kg body weight daily oral, day 27
[10] = 1 mg/kg body weight daily oral, day 32
[11] = 2.5 mg/kg body weight daily oral, day 1
[12] = 2.5 mg/kg body weight daily oral, day 5
[13] = 2.5 mg/kg body weight daily oral, day 9
[14] = 2.5 mg/kg body weight daily oral, day 12
[15] = 2.5 mg/kg body weight daily oral, day 15
[16] = 2.5 mg/kg body weight daily oral, day 18
[17] = 2.5 mg/kg body weight daily oral, day 21
[18] = 2.5 mg/kg body weight daily oral, day 24
[19] = 2.5 mg/kg body weight daily oral, day 27
[20] = 2.5 mg/kg body weight daily oral, day 32
[21] = 5 mg/kg body weight daily oral, day 1
[22] = 5 mg/kg body weight daily oral, day 5
[23] = 5 mg/kg body weight daily oral, day 9
[24] = 5 mg/kg body weight daily oral, day 12
[25] = 5 mg/kg body weight daily oral, day 15
[26] = 5 mg/kg body weight daily oral, day 18
[27] = 5 mg/kg body weight daily oral, day 21
[28] = 5 mg/kg body weight daily oral, day 24
[29] = 5 mg/kg body weight daily oral, day 27
[30] = 5 mg/kg body weight daily oral, day 32

Question: What does the source list for `O=C(O)CC[Se][Se]CCC(=O)O` [DSePA, 3,3′-diselenodipropionic acid]?
Answer: tumor growth inhibition vs control (1 mg/Kg body weight daily oral, two independent experiments): significantly (P<0.05) inhibited the growth; overall reduction (relative tumor volume vs tumor control) (1 mg/Kg orally daily, end of study period (30 days), n=12, P=0.011): ~3.7 folds; mortality (1 mg/Kg orally daily, two independent studies): did not show any mortality; % S (Survival) [1]: 100%; RTV (Relative Tumor Volume) [1]: 1; T/C (T (test)/C (control)) [1]: 1; % S (Survival) [2]: 100%; RTV (Relative Tumor Volume) [2]: 1.13; T/C (T (test)/C (control)) [2]: 0.80; % S (Survival) [3]: 100%; RTV (Relative Tumor Volume) [3]: 1.13; T/C (T (test)/C (control)) [3]: 0.79; % S (Survival) [4]: 100%; RTV (Relative Tumor Volume) [4]: 1.22; T/C (T (test)/C (control)) [4]: 0.48; % S (Survival) [5]: 100%; RTV (Relative Tumor Volume) [5]: 1.42; T/C (T (test)/C (control)) [5]: 0.37; % S (Survival) [6]: 100%; RTV (Relative Tumor Volume) [6]: 2.28; T/C (T (test)/C (control)) [6]: 0.38; % S (Survival) [7]: 100%; RTV (Relative Tumor Volume) [7]: 1.90; T/C (T (test)/C (control)) [7]: 0.33; % S (Survival) [8]: 100%; RTV (Relative Tumor Volume) [8]: 2.22; T/C (T (test)/C (control)) [8]: 0.24; % S (Survival) [9]: 100%; RTV (Relative Tumor Volume) [9]: 3.24; T/C (T (test)/C (control)) [9]: 0.32; % S (Survival) [10]: 100%; RTV (Relative Tumor Volume) [10]: 4.38; T/C (T (test)/C (control)) [10]: 0.36; % S (Survival) [11]: 100%; RTV (Relative Tumor Volume) [11]: 1; T/C (T (test)/C (control)) [11]: 1; % S (Survival) [12]: 100%; RTV (Relative Tumor Volume) [12]: 1.09; T/C (T (test)/C (control)) [12]: 0.76; % S (Survival) [13]: 100%; RTV (Relative Tumor Volume) [13]: 1.01; T/C (T (test)/C (control)) [13]: 0.70; % S (Survival) [14]: 100%; RTV (Relative Tumor Volume) [14]: 1.42; T/C (T (test)/C (control)) [14]: 0.56; % S (Survival) [15]: 100%; RTV (Relative Tumor Volume) [15]: 1.66; T/C (T (test)/C (control)) [15]: 0.43; % S (Survival) [16]: 100%; RTV (Relative Tumor Volume) [16]: 1.79; T/C (T (test)/C (control)) [16]: 0.30; % S (Survival) [17]: 100%; RTV (Relative Tumor Volume) [17]: 1.54; T/C (T (test)/C (control)) [17]: 0.26; % S (Survival) [18]: 100%; RTV (Relative Tumor Volume) [18]: 1.23; T/C (T (test)/C (control)) [18]: 0.13; % S (Survival) [19]: 100%; RTV (Relative Tumor Volume) [19]: 1.74; T/C (T (test)/C (control)) [19]: 0.17; % S (Survival) [20]: 100%; RTV (Relative Tumor Volume) [20]: 2.21; T/C (T (test)/C (control)) [20]: 0.18; % S (Survival) [21]: 100%; RTV (Relative Tumor Volume) [21]: 1; T/C (T (test)/C (control)) [21]: 1; % S (Survival) [22]: 100%; RTV (Relative Tumor Volume) [22]: 1.04; T/C (T (test)/C (control)) [22]: 0.73; % S (Survival) [23]: 100%; RTV (Relative Tumor Volume) [23]: 1.05; T/C (T (test)/C (control)) [23]: 0.73; % S (Survival) [24]: 100%; RTV (Relative Tumor Volume) [24]: 1.32; T/C (T (test)/C (control)) [24]: 0.52; % S (Survival) [25]: 100%; RTV (Relative Tumor Volume) [25]: 1.11; T/C (T (test)/C (control)) [25]: 0.29; % S (Survival) [26]: 100%; RTV (Relative Tumor Volume) [26]: 1.29; T/C (T (test)/C (control)) [26]: 0.22; % S (Survival) [27]: 100%; RTV (Relative Tumor Volume) [27]: 1.22; T/C (T (test)/C (control)) [27]: 0.21; % S (Survival) [28]: 100%; RTV (Relative Tumor Volume) [28]: 1.25; T/C (T (test)/C (control)) [28]: 0.13; % S (Survival) [29]: 100%; RTV (Relative Tumor Volume) [29]: 1.73; T/C (T (test)/C (control)) [29]: 0.17; % S (Survival) [30]: 100%; RTV (Relative Tumor Volume) [30]: 2.45; T/C (T (test)/C (control)) [30]: 0.20; tumor growth inhibition vs control (dosage optimization, 1 mg/kg body weight daily oral for 4 weeks): significantly (P<0.05) inhibited the growth of K562 tumor from the day 15 onwards; tumor growth inhibition vs control (dosage optimization, 2.5 mg/kg body weight daily oral for 4 weeks): significantly (P<0.05) inhibited the growth of K562 tumor from the day 15 onwards; tumor growth inhibition vs control (dosage optimization, 5 mg/kg body weight daily oral for 4 weeks): significantly (P<0.05) inhibited the growth of K562 tumor from the day 15 onwards; mortality (dosage optimization, 1, 2.5 and 5 mg/kg daily oral): did not show any mortality; T/C achieved (leukemia model, 1 mg/kg body weight daily oral): ≤ 0.42; minimum dosage to achieve optimum efficacy (oral daily): 1 mg/kg body weight
